Reference: PMC4414571, “Peptides of Presenilin-1 Bind the Amyloid Precursor Protein Ectodomain and Offer a Novel and Specific Therapeutic Approach to Reduce ß-Amyloid in Alzheimer’s Disease” (PLoS ONE, 2015)
Ends that are not written are not given here.

Columns and labels:
[1] = target: T1, soluble ectodomain of APP (APPs, APP 695) (Homo sapiens, UniProt P05067); test: Biolayer interferometry, biotinylated peptides on streptavidin biosensors vs purified soluble APP (APPs); format: binding; details: 30°C, biotinylated peptide on SA biosensors
T1 construct: host or cells: Sf9 insect cells (baculovirus), conditioned medium
Protocol: Sf9 cells (ATCC CRL 1711) were grown in TMN-FH complete medium (Pharmingen) in suspension and infected at a multiplicity of infection of 2 with a titred stock of recombinant virus expressing human APP695. Conditioned media and/or cells were harvested 6 days after infection. Cells and debris were removed by centrifugation (at 1000 x g for 15 min).
Recombinant baculoviruses were produced according to published protocols. A fragment containing full-length APP 695 was subcloned into the baculovirus transfer vector pBlueBac3 (Invitrogen). The resulting recombinant vector was co-transfected with baculovirus DNA into sf9 cells. Recombinant APP expression was verified by Western blot hybridization using mouse MAb against human APP (Cat # MAB348, Millipore).
APPs was purified from baculovirus conditioned medium to >95% purity, as assessed by densitometry analysis of Coomassie stained SDS PAGE gels, by Arvys Proteins, Stamford, CT, using the following strategy. The conditioned medium proteins were purified by heparin-affinity chromatography, followed by two gel filtration chromatography steps over HiPrep Sephacryl S300 columns and two steps of anion exchange chromatography on HiTrapQ columns.
The binding affinities of peptides P1, scrambled P1, P4, P5, P7 and P8 for the soluble ectodomain of APP or control IgG were measured by biolayer interferometry on an Octet RED96 System (Pall FortéBio Corp., Menlo Park, CA). This system monitors interference of light reflected from two sources (an internal reflection surface and the liquid/solid interface of a fiber optic sensor) to measure the rate of binding of molecules to the biosensor surface.
Peptides were synthesized and biotinylated at the NH2-terminus by Dr. Michael Freydkin at Biopeptides, Inc., San Diego, CA, and purified to >95% by HPLC. Biotinylated peptides were loaded onto Streptavidin (SA) biosensors (Pall FortéBio Corp.) at empirically determined concentrations. All affinity measurements were carried out in Kinetics Buffer (KB) (1X PBS, 0.002% Tween-20, and 0.01% BSA) at 30°C. Typically, the biosensors were pre-equilibrated in KB for 120s, loaded with a biotinylated peptide at optimal concentrations and times, quenched with 10 μg/ml biocytin in KB for 180s, brought to baseline in KB for 120s and transferred to wells containing purified APPs (0–200 nM). Multiple negative controls were run for each peptide including association buffer only (no APP) or with IgG replacing APP. Binding kinetics were calculated using the FortéBio Data Analysis v7.1 software. The association (k on) and dissociation (k off) rate constants were obtained by fitting the association and dissociation data to a 1:1 model. Binding affinity, KD, was calculated as k off/k on.

[2] = tested on: NICD / γ-secretase in Jurkat cells; test: NICD levels in extracts of Jurkat cells by ELISA (γ-secretase activity); details: 0–10 μM, 24 h, 450 nm, percent control, n = 2–3
Protocol: Jurkat cells (Sigma) were cultured in RPMI 1640 medium supplemented with 10% FCS, 2 mM L-glutamine, penicillin and streptomycin at 37°C in the presence of 5% CO2. […] After harvesting the cells, extracts were prepared by sonication in lysis buffer (Cell Signaling Technologies) supplemented with 1mM PMSF and complete protease inhibitor cocktail (Roche). The solubilized extracts were then used in ELISA assays to determine NICD levels, as a measure of γ-secretase activity, using the PathScan Cleaved Notch 1 (Val 1744) sandwich ELISA kit (Cell Signaling Technologies) according to the manufactuer’s protocols.

[3] = ref evidence that will be presented elsewhere, cited from earlier work
Excerpt: Two types of technologies have largely been pursued in the field thus far in efforts to reduce the levels of Aβ: β- or γ- secretase inhibitors or modulators, and the use of Aβ-specific monoclonal antibodies. Neither approach has been entirely successful, and γ-secretase inhibitors have been particularly problematic because of off-target effects due to the inhibition of their other substrates, Notch in particular.

[4] = tested on: NICD (γ-secretase activity); test: NICD levels in neocortex of treated mThy1-hAPP mice by Western blot (γ-secretase activity); format: in vivo, mouse; details: peptide-infused mThy1-hAPP mice vs PBS, n = 5, two weeks after end of treatment
Protocol: Extracts of neocortex of mThy1-hAPP mice treated with P4, P8 or PBS only were electrophoresed on SDS gels and Western blotted with primary rabbit antibodies against NICD (Cat# 07–1232, Millipore) at 4°C overnight, followed by horse-radish peroxidase (HRP)-conjugated goat anti-rabbit IgG (Bio-Rad). The immunoreactive bands were detected by chemiluminescence (Thermo Scientific).
An optimal therapeutic approach to AD would avoid producing serious effects on other biochemically and physiologically important processes, as would occur if the cleavages of any of the other substrates of β- or γ-secretase were affected in the process of reducing the levels of Aβ. An especially well-studied example is the γ-secretase activity of PS-1 that is critically involved in the final enzymatic cleavage of Aβ from APP; it also functions in an essential developmental process that generates NICD from Notch. […] At the same time we analyzed the same tissue samples for their β-secretase (BACE-1) activity and APP expression. Extracts were prepared of the neocortex of Tg mice that had been treated with P4, P8 or PBS, and the levels of NICD were determined by Western blot analysis with a primary rabbit Ab against NICD. […]

[5] = tested on: IMR-32 human neuroblastoma cell-line (endogenous Aβ40 or 42 production); test: Endogenous Aβ40 and 42 production in IMR-32 culture medium by ELISA; format: cell-based
Protocol: A human neuroblastoma cell-line, IMR-32 (ATCC CCL-127) was cultured in MEM Earles medium containing 10% fetal bovine serum, 2 mM L-glutamine in the presence of penicillin and streptomycin. Equal numbers of cells (0.3 x 10^6 per well) were plated on 6-well plates overnight. Peptides (0–5 μM) were added to fresh culture medium (500 μl per well) and left in the incubator for 24 hours, after which the culture medium from each well was removed and stored at -80°C in the presence of 4-(2-Aminoethyl) benzenesulfonyl fluoride hydrochloride (AEBSF) and protease inhibitors. Prior to use, the culture medium was centrifuged in an eppendorf microfuge for 5 min at 4°C, the supernatant diluted with an equal volume of sample diluent buffer (Wako) and analyzed for the presence of Aβ40 or 42 using a commercial ELISA kit (Wako).

BACE-1 in IMR-32 cells = test: BACE-1 activity in extracts of cultured IMR-32 cells; format: cell-based, human; details: 0–5 μM, 24 h, SensiZyme kit, 405 nm, percent control, n = 2–3
Protocol: IMR-32 cells in culture were treated with peptides P4, P8 and scrambled peptide P1 (0–5 μM) or the BACE-1 inhibitor […] (Selleck Chemicals) (0–500 nM) for 24 h. Cells were harvested and extracts prepared by sonication and solubilization in cell lysis buffer containing 1% Triton X-100 and EDTA (Cell Signaling Technologies) and supplemented with complete protease inhibitor cocktail (Roche) according to the manufacturer’s protocols. BACE-1 activity was measured as already described above using the SensiZyme BACE-1 activity assay kit.

T1 sequence (P05067 18-612 isoform P05067-4 limits assumed): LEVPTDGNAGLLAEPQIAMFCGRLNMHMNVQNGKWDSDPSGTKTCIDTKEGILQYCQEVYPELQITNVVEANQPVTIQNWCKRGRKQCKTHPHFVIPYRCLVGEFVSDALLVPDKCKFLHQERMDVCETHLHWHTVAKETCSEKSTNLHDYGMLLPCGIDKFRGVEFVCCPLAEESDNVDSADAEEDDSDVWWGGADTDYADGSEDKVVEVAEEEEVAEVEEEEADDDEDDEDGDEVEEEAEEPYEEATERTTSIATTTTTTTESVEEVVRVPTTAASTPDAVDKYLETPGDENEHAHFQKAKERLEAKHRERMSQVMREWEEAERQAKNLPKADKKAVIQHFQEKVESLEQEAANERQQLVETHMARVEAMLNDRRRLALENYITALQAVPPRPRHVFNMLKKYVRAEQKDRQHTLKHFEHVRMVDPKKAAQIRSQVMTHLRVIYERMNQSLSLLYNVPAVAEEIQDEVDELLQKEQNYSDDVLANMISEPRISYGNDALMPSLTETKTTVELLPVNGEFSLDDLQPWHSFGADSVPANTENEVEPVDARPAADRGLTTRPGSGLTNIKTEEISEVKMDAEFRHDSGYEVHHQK

Sequence	koff ([1]; 1:1 model, Kinetics Buffer) [s⁻¹]	kon ([1]; 1:1 model, Kinetics Buffer) [M⁻¹ s⁻¹]	Kd ([1]; k off/k on, 1:1 model, Kinetics Buffer (1X PBS, 0.002% Tween-20, 0.01% BSA)) [nM]	NICD levels in Jurkat cells, peptides (in words) [2]	Stability (in words) ([3]; matrix not stated)	Brain delivery (in words) ([3]; rats)	NICD levels in neocortex (in words) [4]	Binding to purified APPs (in words) ([1]; Kinetics Buffer)	Effect on Aβ40 and 42 production in vitro (in words) ([5]; 0–5 μM peptide, 24 h, IMR-32 culture medium, ELISA)	Production of total Aβ and of Aβ 40 and 42 (summary in words) ([5]; Discussion summary, stated as in vitro and in vivo (mThy1-hAPP Tg mice))	BACE-1 activity in IMR-32 cells, peptides (in words) (BACE-1 in IMR-32 cells)
DEEEDEEL [Peptide P8]	0.00306	886000	3.45	no appreciable change in the levels of NICD	stable	can be successfully delivered to the brain in rats	not accompanied by any significant changes in the levels of NICD	–	–	–	–
PTERLLKGTVRLKQQLDQDESDARNLRNNLNPQRGFMALDESERHENRSAMQVESHQNPHPPYETEQENDEGSGSEYSNV [SP1, scrambled P1, control peptide]	–	–	–	–	–	–	–	no significant binding to APP	no significant changes in Aβ levels	did not reduce Aβ	remained essentially unchanged
